Activity calls are given as the source filed them. The rule behind the calls is not given here.
How the values were obtained:
[1] = system: Phialophora verrucosa; test: Antifungal activity against Phialophora verrucosa assessed as lowest dose level for total inhibition of fungal growth; type: functional
[2] = system: Trichophyton mentagrophytes; test: Antifungal activity against Trichophyton mentagrophytes assessed as lowest dose level for total inhibition of fungal growth; type: functional
[3] = system: Erysipelothrix rhusiopathiae; test: Antibacterial activity against Erysipelothrix insidiosa assessed as lowest dose level for total inhibition of bacterial growth; type: functional
[4] = system: Mucor; test: Antifungal activity against Mucor species assessed as lowest dose level for total inhibition of fungal growth; type: functional
[5] = system: Staphylococcus haemolyticus; test: Antibacterial activity against Staphylococcus haemolyticus assessed as lowest dose level for total inhibition of bacterial growth; type: functional
[6] = system: Candida albicans; test: In vivo antifungal activity against Candida albicans topically infected in guinea pig assessed as animal cured at 10 mg/kg, po; type: functional, organism-based; design: dose 10 mg/kg
[7] = system: Sporothrix schenckii; test: Antifungal activity against Sporothrix schenckii assessed as lowest dose level for total inhibition of fungal growth; type: functional
[8] = system: Candida tropicalis; test: Antifungal activity against Candida tropicalis assessed as lowest dose level for total inhibition of fungal growth; type: functional
[9] = system: Saprolegnia; test: Antifungal activity against Saprolegnia species assessed as lowest dose level for total inhibition of fungal growth; type: functional
[10] = system: Aspergillus fumigatus; test: Antifungal activity against Aspergillus fumigatus assessed as lowest dose level for total inhibition of fungal growth; type: functional
[11] = system: Trichophyton rubrum; test: Antifungal activity against Trichophyton rubrum assessed as lowest dose level for total inhibition of fungal growth; type: functional
[12] = system: Microsporum canis; test: Antifungal activity against Microsporum canis assessed as lowest dose level for total inhibition of fungal growth; type: functional
[13] = system: Cryptococcus neoformans; test: Antifungal activity against Cryptococcus neoformans assessed as lowest dose level for total inhibition of fungal growth; type: functional
[14] = system: Streptococcus pyogenes; test: Antibacterial activity against Streptococcus pyogenes assessed as lowest dose level for total inhibition of bacterial growth; type: functional
[15] = system: Candida albicans; test: Antifungal activity against Candida albicans assessed as lowest dose level for total inhibition of fungal growth; type: functional

SMILES	Activity [1]	Activity [2]	Activity [3]	Activity [4]	Activity [5]	Activity [6]	Activity [7]	Activity [8]	Activity [9]	Activity [10]	Activity [11]	Activity [12]	Activity [13]	Activity [14]	Activity [15]
Clc1ccc(C(Cc2ccccc2Cl)Cn2ccnc2)cc1.O=[N+]([O-])O (stereo not given)	100 µg/mL	<1 µg/mL	1 µg/mL	10 µg/mL	10 µg/mL	inactive	100 µg/mL	100 µg/mL	100 µg/mL	100 µg/mL	<1 µg/mL	10 µg/mL	<1 µg/mL	10 µg/mL	100 µg/mL
Clc1ccc(CC(Cn2ccnc2)c2c(Cl)cccc2Cl)cc1.O=[N+]([O-])O (stereo not given)	100 µg/mL	<1 µg/mL	<1 µg/mL	>100 µg/mL	100 µg/mL	inactive	100 µg/mL	>100 µg/mL	100 µg/mL	100 µg/mL	<1 µg/mL	<1 µg/mL	100 µg/mL	<1 µg/mL	100 µg/mL
Clc1ccc(CC(Cn2ccnc2)c2ccccc2Br)c(Cl)c1.O=[N+]([O-])O (stereo not given)	100 µg/mL	<1 µg/mL	<1 µg/mL	10 µg/mL	<1 µg/mL	inactive	10 µg/mL	100 µg/mL	100 µg/mL	10 µg/mL	<1 µg/mL	10 µg/mL	<1 µg/mL	10 µg/mL	10 µg/mL
Clc1ccc(CCC(Cn2ccnc2)c2ccc(Cl)cc2Cl)c(Cl)c1.O=[N+]([O-])O (stereo not given)	>100 µg/mL	<1 µg/mL	<1 µg/mL	>100 µg/mL	100 µg/mL	inactive	10 µg/mL	>100 µg/mL	100 µg/mL	100 µg/mL	<1 µg/mL	10 µg/mL	<1 µg/mL	<1 µg/mL	>100 µg/mL
Clc1ccc(CC(Cn2ccnc2)c2ccc(Cl)cc2Cl)cc1.O=[N+]([O-])O (stereo not given)	100 µg/mL	<1 µg/mL	<1 µg/mL	100 µg/mL	10 µg/mL	inactive	10 µg/mL	100 µg/mL	<1 µg/mL	100 µg/mL	<1 µg/mL	10 µg/mL	<1 µg/mL	<1 µg/mL	100 µg/mL
Clc1ccc(C(Cc2ccccc2)Cn2ccnc2)c(Cl)c1.O=[N+]([O-])O (stereo not given)	10 µg/mL	<1 µg/mL	<1 µg/mL	100 µg/mL	10 µg/mL	inactive	10 µg/mL	10 µg/mL	10 µg/mL	100 µg/mL	<1 µg/mL	10 µg/mL	<1 µg/mL	<1 µg/mL	100 µg/mL
Clc1ccc(CC(Cn2ccnc2)c2c(Cl)cccc2Cl)c(Cl)c1.O=[N+]([O-])O (stereo not given)	>100 µg/mL	10 µg/mL	1 µg/mL	100 µg/mL	10 µg/mL	inactive	10 µg/mL	>100 µg/mL	100 µg/mL	100 µg/mL	<1 µg/mL	10 µg/mL	10 µg/mL	<1 µg/mL	>100 µg/mL
Clc1ccc(CC(Cn2ccnc2)c2ccc(Cl)cc2Cl)c(Cl)c1.O=[N+]([O-])O (stereo not given)	100 µg/mL	<1 µg/mL	<1 µg/mL	100 µg/mL	10 µg/mL	inactive	<1 µg/mL	10 µg/mL	100 µg/mL	100 µg/mL	<1 µg/mL	10 µg/mL	<1 µg/mL	<1 µg/mL	10 µg/mL
Clc1ccc(CC(Cn2ccnc2)c2ccccc2Cl)c(Cl)c1.O=[N+]([O-])O (stereo not given)	100 µg/mL	<1 µg/mL	10 µg/mL	100 µg/mL	100 µg/mL	inactive	10 µg/mL	>100 µg/mL	100 µg/mL	100 µg/mL	<1 µg/mL	10 µg/mL	<1 µg/mL	<1 µg/mL	100 µg/mL
Clc1ccc(CCC(Cn2ccnc2)c2ccc(Cl)cc2Cl)cc1.O=[N+]([O-])O (stereo not given)	10 µg/mL	<1 µg/mL	<1 µg/mL	100 µg/mL	1 µg/mL	inactive	<1 µg/mL	10 µg/mL	10 µg/mL	100 µg/mL	<1 µg/mL	10 µg/mL	<1 µg/mL	<1 µg/mL	10 µg/mL
COc1ccc(CC(Cn2ccnc2)c2ccc(Cl)cc2Cl)cc1.O=[N+]([O-])O (stereo not given)	10 µg/mL	<1 µg/mL	1 µg/mL	10 µg/mL	10 µg/mL	inactive	10 µg/mL	10 µg/mL	100 µg/mL	100 µg/mL	<1 µg/mL	100 µg/mL	<1 µg/mL	1 µg/mL	10 µg/mL
Clc1ccc(C(CCc2ccccc2)Cn2ccnc2)c(Cl)c1.O=[N+]([O-])O (stereo not given)	10 µg/mL	<1 µg/mL	<1 µg/mL	100 µg/mL	1 µg/mL	inactive	10 µg/mL	>100 µg/mL	10 µg/mL	100 µg/mL	<1 µg/mL	10 µg/mL	<1 µg/mL	<1 µg/mL	100 µg/mL
